Measured values reported in patent publication US5773439A, “Amido-quinoxalinediones, the preparation and use thereof” (BASF Aktiengesellschaft, priority 1994, dated 1998).

Test system: AMPA receptor
Test: Binding of 3H-AMPA to rat cerebra membranes
Details: for activity compared with the substance of Example 56 in EP 572,852 and compound 16: 3H-AMPA binding; for Ki: displacement of 3H-AMPA, isolated membrane material from rat cerebra
Experimental: The pharmacological activity of the compounds I was investigated in isolated membrane material from rat cerebra. For this purpose, the membrane material was treated in the presence of the compounds according to the invention with the radiolabeled substances ^3 H-2-amino-3-hydroxy-5-methyl-4-isoxazolepropionic acid (^3 H-AMPA) [^3 H]-glycine or [^3 H]-kainate, these binding to specific receptors (AMPA, NMDA or kainate receptors). Subsequently, the radioactivity of the treated membranes was measured by scintillation counting. It was possible to determine from the bound radioactivity the amounts of bound ^3 H-AMPA, [^3 H]-glycine or [^3 H]-kainate, or in each case the amounts of these radiolabeled substances displaced. The dissociation constant KI (I=inhibitor) derived from this is a measure of the displacing action of the agent according to the invention and was found by iterative non-linear regression analysis using the statistical analysis system (SAS) on an IBM computer, similar to the "Ligand" program of P. J. Munson and D. Rodbard (Analytical Biochem. 107, 220 (1980), Ligand: Versatile Computerized Approach for Characterization of Ligand Binding Systems).
1. Binding of ^3 H-2-amino-3-hydroxy-5-methyl-4-isoxazolepropionic acid (^3 H-AMPA)
To prepare the membrane material, freshly removed rat cerebra were homogenized together with 15 times the volume of a buffer solution A comprising 30 mM α,α,α-tris(hydroxymethyl)methylamine hydrochloride (TRIS-HCl) and 0.5 mM ethylenediaminetetraacetic acid (EDTA), pH 7.4, using an Ultra-Turrax®. The suspension was centrifuged at 48,000 g for 20 min. After removal of the supernatant liquid, the protein-containing membrane material contained in the sediment was washed three times by suspension in buffer solution A and subsequent centrifugation at 48,000 g for 20 minutes each time. The membrane material was then suspended in 15 times the volume of buffer solution A and incubated at 37° C. for 30 min. The protein material was subsequently washed twice by centrifugation and suspension and stored at -70° C. until used.
For the binding assay, the protein material was thawed at 37° C. and washed twice by centrifugation at 48,000 g (20 min) and subsequent suspension in a buffer solution B comprising 50 mM TRIS-HCl, 0.1M potassium thiocyanate and 2.5 mM calcium chloride, pH 7.1. Subsequently, 0.25 mg of membrane material, 0.1 μCi of ^3 H-AMPA (60 Ci/mmol) and compound I were dissolved in 1 ml of buffer solution B and incubated on ice for 60 min. The incubated solution was filtered through a CF/B filter (from Whatman) which had previously been treated with a 0.5% strength aqueous solution of polyethyleneimine for at least 2 hours. The membrane residue was subsequently washed with 5 ml of cold buffer solution B in order to separate bound and free ^3 H-AMPA from one another. After measurement of the radioactivity of the bound ^3 H-AMPA in the membrane material by scintillation counting, the KI was determined by regression analysis of the displacement plots.

Row | activity compared with the substance of Example 56 in EP 572,852 and compound 16 (comparison in words) | Ki [µM] | activity compared with 1-carbamoyl-7-pyrrolylquinoxalinedione (Example 56 in EP 572,852) (comparison in words, test not named) | Compound
1 | more active | < 10 |  | O=C(Nn1c(=O)c(=O)[nH]c2cc(C(F)(F)F)ccc21)c1ccccc1 [Example 1, 1-Benzamido-6-trifluoromethylquinoxaline-2,3(1H,4H)-dione]
2 | more active | < 10 | distinctly more active | O=C(Nn1c(=O)c(=O)[nH]c2cc(C(F)(F)F)c(-n3cccc3)cc21)c1ccccc1 [Example 29, 1-Benzamido-7-(1-pyrrolyl)-6-trifluoromethylquinoxaline-2,3-(1H,4H)-dione]
